The source of these data is ChEMBL document CHEMBL2434883, “Novel heterocyclic-fused pyrimidine derivatives: synthesis, molecular modeling and pharmacological screening” (Eur J Med Chem, 2013).

In general, inhibition refers to the percentage by which the read-out fell short of the control. A high value points to strong suppression. The term IC50 denotes the concentration needed to halve the response being measured.

Converted amounts (≈) assume the structure as drawn.

Test [1] concerns the target Proto-oncogene tyrosine-protein kinase Src (Homo sapiens) (UniProt P12931). Nature of the test: Inhibition of c-Src (unknown origin) using [33P]-ATP as substrate at 10 uM after 30 mins by scintillation counting analysis relative to control.
For a further test, the species on record is Homo sapiens. Nature of the test: Inhibition of VEGFR (unknown origin) using [33P]-ATP as substrate at 10 uM after 30 mins by scintillation counting analysis relative to control.
The subject of the next test is MCF7. Put plainly: Cytotoxicity against human MCF7 cells after 48 hrs by SRB assay. The test is classed as functional, cell-based. Conditions: MCF7, 48 h. (In general: Sulforhodamine B stains cellular protein and so reports cell mass.)

Chain of Proto-oncogene tyrosine-protein kinase Src (Homo sapiens) (P12931 2-536 limits assumed): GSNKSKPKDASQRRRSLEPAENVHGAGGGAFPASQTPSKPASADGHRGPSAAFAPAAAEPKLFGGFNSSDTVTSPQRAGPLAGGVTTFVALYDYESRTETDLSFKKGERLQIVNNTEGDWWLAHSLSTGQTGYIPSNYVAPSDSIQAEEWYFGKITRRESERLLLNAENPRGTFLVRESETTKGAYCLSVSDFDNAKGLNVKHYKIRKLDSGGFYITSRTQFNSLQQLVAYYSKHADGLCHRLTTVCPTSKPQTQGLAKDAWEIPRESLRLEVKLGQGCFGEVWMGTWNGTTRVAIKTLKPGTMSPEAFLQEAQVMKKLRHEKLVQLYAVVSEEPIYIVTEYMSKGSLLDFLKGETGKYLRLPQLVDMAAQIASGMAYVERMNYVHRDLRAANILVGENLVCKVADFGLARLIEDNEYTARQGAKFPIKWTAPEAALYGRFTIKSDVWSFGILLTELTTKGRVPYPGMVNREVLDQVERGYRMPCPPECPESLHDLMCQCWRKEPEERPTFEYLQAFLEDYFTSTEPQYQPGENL

Regarding `N#CC1=C(N2C(=O)C(=O)N(c3ccccc3)C2=O)N(c2ccccc2)C(=O)N2CCCC12` (stereo not given), the inhibition in test [1] worked out at 45%; in the test filed under Homo sapiens it was 25%. The compound also came in with a concentration for half-maximal inhibition (IC50) in the test on MCF7 of 10.8 µg/mL (≈ 25.3 µM).
For `N#CC1=C(NC(=O)Nc2ccccc2)N(c2ccccc2)C(=S)N2CCCC12` (stereo not given), half-maximal inhibition in the test on MCF7 (IC50) was put at 14.2 µg/mL (≈ 36.5 µM).
As to `N=c1c2c([nH]c(=O)n1-c1ccccc1)N(c1ccccc1)C(=O)N1CCCC21` (stereo not given), the inhibition is 0% in test [1] and 11% in the test filed under Homo sapiens. In the test with MCF7, the midpoint of inhibition, the IC50, lay at 9.6 µg/mL (≈ 25.7 µM).
Regarding `O=C1N(c2ccccc2)c2[nH]c(=S)nc(/N=C/c3ccc(Cl)cc3)c2C2CCCCCN12` (stereo not given), the IC50 with MCF7 amounted to 10.6 µg/mL (≈ 22.8 µM).
For the compound `O=C1N(c2ccccc2)c2nc[nH]c(=O)c2C2CCCCCN12` (stereo not given), the inhibition in test [1] turned out to be 81%; in the test filed under Homo sapiens, 3%. The compound also gave an IC50 in the test with MCF7 of 11.2 µg/mL (≈ 36.1 µM).
In the test with MCF7, `Nc1nc(=S)[nH]c2c1C1CCCN1C(=S)N2c1ccccc1` (stereo not given) showed an IC50 of 22.8 µg/mL (≈ 69.2 µM).
The same measure, in the same setting: with `O=c1[nH]cnc2c1C1CCCN1C(=S)N2c1ccccc1` (stereo not given) the figure was 20 µg/mL (≈ 67 µM); with `O=C1N(c2ccccc2)c2[nH]c(=S)sc(=O)c2C2CCCN12` (stereo not given), 17 µg/mL (≈ 51.3 µM).
The same measure, in the same setting: the same measure for `Nc1nc(=S)[nH]c2c1C1CCCN1C(=O)N2c1ccccc1` (stereo not given): 13.6 µg/mL (≈ 43.4 µM).
Still for that read-out and setting: with `Nc1nc(=S)[nH]c2c1C1CCCCCN1C(=O)N2c1ccccc1` (stereo not given) the figure was 10.8 µg/mL (≈ 31.6 µM); with `N#CC1=C(NC(=O)Nc2ccccc2)N(c2ccccc2)C(=O)N2CCCC12` (stereo not given), 19.8 µg/mL (≈ 53 µM).
As for `Cc1ccc(NC(=O)CNC2=C(C#N)C3CCCN3C(=S)N2c2ccccc2)cc1` (stereo not given), the IC50 in the test on MCF7 was 12.8 µg/mL (≈ 30.7 µM).
Still for that read-out and setting: with `O=C1N(c2ccccc2)c2nc[nH]c(=O)c2C2CCCN12` (stereo not given) the figure was 14.8 µg/mL (≈ 52.4 µM); with `O=C1N(c2ccccc2)c2[nH]c(=S)sc(=O)c2C2CCCCCN12` (stereo not given), 14 µg/mL (≈ 38.9 µM); with `O=C1N(c2ccccc2)c2[nH]c(=S)nc(/N=C/c3ccc(Cl)cc3)c2C2CCCN12` (stereo not given), 12.4 µg/mL (≈ 28.4 µM).
In the test on MCF7, `N#CC1=C(N2C(=O)CN(c3ccccc3)C2=O)N(c2ccccc2)C(=O)N2CCCC12` (stereo not given) displayed an IC50 of 18.6 µg/mL (≈ 45 µM).
On the same count and under the same terms, the same measure for `Cc1ccc(NC(=O)CNC2=C(C#N)C3CCCN3C(=O)N2c2ccccc2)cc1` (stereo not given): 21.6 µg/mL (≈ 53.8 µM); for `NNc1ncnc2c1C1CCCN1C(=O)N2c1ccccc1` (stereo not given): 11 µg/mL (≈ 37.1 µM); for `O=c1sc(=S)[nH]c2c1C1CCCN1C(=S)N2c1ccccc1` (stereo not given): 18.8 µg/mL (≈ 54.1 µM).
In the case of `N#CCC(=O)NC1=C(C#N)C2CCCN2C(=O)N1c1ccccc1` (stereo not given), the inhibition (in test [1]; in the test listed under Homo sapiens) was 0% in each case. The IC50 in the test with MCF7 came out at 12.8 µg/mL (≈ 39.8 µM).
With `N#CC1=C(NC(=S)Nc2ccccc2)N(c2ccccc2)C(=O)N2CCCC12` (stereo not given), in the test with MCF7, half-maximal inhibition (IC50) required 16.6 µg/mL (≈ 42.6 µM).
Same read-out and setting: the same measure for `N#CC1=C(NC(=S)Nc2ccccc2)NC(=S)N2CCCC12` (stereo not given): 20.8 µg/mL (≈ 63.1 µM).
